Reference: EP4810500A1, “IMIDAZOL-2-ONE DERIVATIVE AND USE THEREOF IN MEDICINE” (Haisco Pharmaceutical Group Co., Ltd., priority 2023, dated 2025)
Read-outs that look alike come from different tables or passages of the source.

Assays:
CYP3A4 = target: T1, CYP3A4 (Homo sapiens, UniProt P08684); assay: CYP450 enzyme activity inhibition assay (human liver microsomes); assay type: in vitro ADME
T1 construct: from tissue; host or cells: human liver microsomes
Description: (§1) The purpose of this study was to evaluate the effects of the test compounds on the activities of five isoenzymes (CYP1A2, CYP2C9, CYP2C19, CYP2D6, and CYP3A4) of human liver microsomal cytochrome P450 (CYP) using an in vitro testing system. The specific probe substrates of CYP450 isoenzymes were incubated with human liver microsomes and test compounds of different concentrations, and reduced nicotinamide adenine dinucleotide phosphate (NADPH) was added to initiate the reaction. After the completion of the reaction, the sample was treated and liquid chromatography-tandem mass spectrometry (LC-MS/MS) was used to quantitatively detect metabolites produced by specific substrates. Changes in CYP enzyme activity were determined, and IC50 value was calculated to evaluate the inhibitory potential of the test compound on each CYP enzyme subtype.

CYP2D6 = target: T2, CYP2D6 (Homo sapiens, UniProt P10635); assay: as above; assay type: in vitro ADME
T2 construct: from tissue; host or cells: human liver microsomes
Description: as §1

CYP1A2 = target: T3, CYP1A2 (Homo sapiens, UniProt P05177); assay: as above; assay type: in vitro ADME
T3 construct: from tissue; host or cells: human liver microsomes
T3 sequence (P05177 1-516): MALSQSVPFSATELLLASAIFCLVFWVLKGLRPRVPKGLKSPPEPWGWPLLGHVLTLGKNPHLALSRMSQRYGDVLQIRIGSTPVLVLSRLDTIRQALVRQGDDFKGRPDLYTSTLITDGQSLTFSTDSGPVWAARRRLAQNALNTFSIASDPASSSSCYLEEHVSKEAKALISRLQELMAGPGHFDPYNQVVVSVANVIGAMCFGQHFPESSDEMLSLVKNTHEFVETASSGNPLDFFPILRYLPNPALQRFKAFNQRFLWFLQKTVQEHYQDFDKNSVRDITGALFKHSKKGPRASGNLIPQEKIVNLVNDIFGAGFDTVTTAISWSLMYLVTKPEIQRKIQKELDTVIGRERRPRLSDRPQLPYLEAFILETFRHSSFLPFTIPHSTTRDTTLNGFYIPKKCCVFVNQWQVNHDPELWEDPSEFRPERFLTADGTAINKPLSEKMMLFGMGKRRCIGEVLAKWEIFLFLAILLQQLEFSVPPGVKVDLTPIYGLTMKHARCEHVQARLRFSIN
Description: as §1

CYP2C19 = target: T4, CYP2C19 (Homo sapiens, UniProt P33261); assay: as above; assay type: in vitro ADME
T4 construct: from tissue; host or cells: human liver microsomes
Description: as §1

CYP2C9 = target: T5, CYP2C9 (Homo sapiens, UniProt P11712); assay: as above; assay type: in vitro ADME
T5 construct: from tissue; host or cells: human liver microsomes
Description: as §1

GLP-1R [1] = target: T6, GLP-1R (Homo sapiens, UniProt P43220); assay: In vitro activity assay (cAMP HTRF, HEK293-CRE-luc-GLP-1R cells); assay type: cell-based; parameters: expressed in transfected cells; host or cells: HEK293 (HEK293-CRE-luc-GLP-1R); conditions: cAMP HTRF 665 nm/620 nm, 1 h incubation
Description: HEK293-CRE-luc-GLP-1R cells were seeded into a 384-well cell culture plate (Greiner #781946) at a certain cell density (5 µL/well). 5 µl/well of 2× working solution was added to the 384-well microplate. The microplate was sealed with parafilm and incubated in a 37°C 5% CO2 incubator (Thermo) for 1 h. Subsequently, the detection was performed using the cAMP-GS HIRANGE KIT (PerkinElmer, 62AM6PEB), and detection reagents were prepared according to the kit instruction manual. After the incubation, the detection reagents were added to the 384-well microplate, and the microplate was incubated for 1 h at room temperature in the dark. HTRF signals at 665 nm and 620 nm were then measured using a multimode microplate reader. Data were exported from the microplate reader in Excel format. GraphPad Prism was opened. The logarithm of the sample concentration was calculated. Using the logarithm of concentration as the x-axis and the 665 nm/620 nm ratio as the y-axis, four-parameter logistic fitting was performed to obtain the EC50 value of the curve. Table 1: EC50 of compounds against GLP-1

[2] = Mouse pharmacokinetic assay; assay type: in vivo, male C57 mice; conditions: plasma, mice; for bioavailability: intragastric administration 10 mg/kg (intravenous 2.5 mg/kg); for AUC(0-t): intragastric administration 10 mg/kg
Description: Experimental animals: male C57 mice, 22-25 g, 6 mice/compound.
Experimental design: on the day of the experiment, C57 mice were randomly grouped according to body weight. The animals were fasted with water available for 12 h to 14 h one day before the administration, and were fed 4 h after the administration. Table 2. Administration information
Before and after the administration, 0.06 mL of blood was taken from the orbits under isoflurane anaesthesia and placed in an EDTAK2 centrifuge tube. The blood was centrifuged at 5000 rpm at 4°C for 10 min, and the plasma was collected. The blood collection time points for the intravenous administration group and intragastric administration group were 0, 5 min, 15 min, 30 min, 1 h, 2 h, 4 h, 7 h and 24 h. Before analysis and detection, all samples were stored at -80°C, and the samples were quantitatively analysed by LC-MS/MS. Table 2-1 Pharmacokinetic results of test compounds in mice

[3] = Monkey pharmacokinetic assay; assay type: in vivo, male cynomolgus monkeys; conditions: cynomolgus monkey, monkeys; for bioavailability: intragastric administration 5 mg/kg (intravenous 1 mg/kg); for AUC(0-t): intragastric administration 5 mg/kg
Description: Experimental animals: male cynomolgus monkeys, 3-5 kg, 3-6 years old, 5 monkeys/compound, purchased from Hainan New Source Biotechnology Co., Ltd.
Experimental method: On the day of the experiment, five monkeys were randomly grouped according to body weight, with two in the intravenous administration group and three in the intragastric administration group. The animals were fasted with water available for 14 h to 18 h one day before the administration, and were fed 4 h after the administration. Table 3. Administration information

GLP-1R [4] = target: T6, GLP-1R; assay: Oral glucose tolerance test (OGTT); assay type: in vivo, male C57BL/6-G1p1rem2 (hGLP1R) Smoc mice; parameters: from tissue; host or cells: whole animal: male C57BL/6-Glp1r em2(hGLP1R) Smoc knock-in mice; conditions: 3 mg/kg, orally administered; from blood glucose AUC0-2 h after glucose load
Description: OGTT experiment was performed in male C57BL/6-G1p1rem2 (hGLP1R) Smoc mice to evaluate the hypoglycaemic effect of GLP-1 receptor agonists. The animals were fasted for more than 16 hours and randomly grouped. Tail tip blood was collected and basal fasting blood glucose (FBG) was measured using a blood glucose meter. Mice with FBG in the range of 3.5-6.5 mmol/L were selected and orally administered, and the control group was administered the vehicle. 15 min after administration, each group of animals was intragastrically administered with 25% glucose solution. Blood glucose levels were measured in tail tip blood collected 15 min, 30 min, 45 min, 1 h, and 2 h after glucose administration. 0-2 h blood glucose AUC0-2 h was calculated using the Graphpad Prism software, and the inhibition rate was further calculated. [formula]

OATP1B1 = target: T7, OATP1B1 (Homo sapiens, UniProt Q9Y6L6); assay: SLC transporter inhibition assay (HEK293-OATP1B1 cells); assay type: in vitro ADME; conditions: test substance 0-30 µM, read-out: IC50 against OATP1B1
T7 construct: expressed in transfected cells; host or cells: HEK293
T7 sequence (Q9Y6L6 1-691): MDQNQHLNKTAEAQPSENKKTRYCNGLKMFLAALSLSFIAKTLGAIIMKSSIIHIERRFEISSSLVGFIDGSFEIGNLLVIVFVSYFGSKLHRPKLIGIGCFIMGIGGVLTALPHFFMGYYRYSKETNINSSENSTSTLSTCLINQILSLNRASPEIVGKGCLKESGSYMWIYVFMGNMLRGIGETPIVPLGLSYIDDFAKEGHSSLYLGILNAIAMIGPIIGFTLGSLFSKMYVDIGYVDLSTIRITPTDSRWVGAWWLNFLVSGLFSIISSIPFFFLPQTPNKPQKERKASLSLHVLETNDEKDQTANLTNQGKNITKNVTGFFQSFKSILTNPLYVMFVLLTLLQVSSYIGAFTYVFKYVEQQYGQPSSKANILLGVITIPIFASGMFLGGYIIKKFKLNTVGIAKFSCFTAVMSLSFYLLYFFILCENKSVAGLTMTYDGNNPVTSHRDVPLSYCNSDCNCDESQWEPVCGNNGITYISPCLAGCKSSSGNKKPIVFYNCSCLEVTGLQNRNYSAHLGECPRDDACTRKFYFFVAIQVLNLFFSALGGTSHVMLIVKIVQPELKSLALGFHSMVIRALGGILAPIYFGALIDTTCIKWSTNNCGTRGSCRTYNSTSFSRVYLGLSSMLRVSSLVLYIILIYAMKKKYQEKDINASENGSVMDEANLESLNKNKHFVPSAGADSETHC
Description: (§2) The objective of this study was to evaluate the inhibitory effects of the test substance on the activities of the transporters OATP1B1 and OATP1B3.
(§3) HEK293-OATP1B1 and OATP1B3 cells were incubated with and without the test substance (0-30 µM) for the corresponding time. Samples were then collected, and the substrate content in the samples was detected by liquid chromatography-tandem mass spectrometry (LC-MS/MS). By calculating the transport activity of the transporter with and without the test substance, the percentage of transporter activity of the transporter-expressing cells at different administration concentrations of the test substance (%VC (Vehicle Control, solvent control), the percentage of transport activity of the transporter with and without the test substance) was obtained, and the half-maximal inhibitory concentration (IC50) was calculated from this.

OATP1B3 = OATP1B3 (Homo sapiens, UniProt Q9NPD5); assay: in vitro; conditions: oatp1b3 cells
Chain of OATP1B3 (Q9NPD5 whole entry, species assumed): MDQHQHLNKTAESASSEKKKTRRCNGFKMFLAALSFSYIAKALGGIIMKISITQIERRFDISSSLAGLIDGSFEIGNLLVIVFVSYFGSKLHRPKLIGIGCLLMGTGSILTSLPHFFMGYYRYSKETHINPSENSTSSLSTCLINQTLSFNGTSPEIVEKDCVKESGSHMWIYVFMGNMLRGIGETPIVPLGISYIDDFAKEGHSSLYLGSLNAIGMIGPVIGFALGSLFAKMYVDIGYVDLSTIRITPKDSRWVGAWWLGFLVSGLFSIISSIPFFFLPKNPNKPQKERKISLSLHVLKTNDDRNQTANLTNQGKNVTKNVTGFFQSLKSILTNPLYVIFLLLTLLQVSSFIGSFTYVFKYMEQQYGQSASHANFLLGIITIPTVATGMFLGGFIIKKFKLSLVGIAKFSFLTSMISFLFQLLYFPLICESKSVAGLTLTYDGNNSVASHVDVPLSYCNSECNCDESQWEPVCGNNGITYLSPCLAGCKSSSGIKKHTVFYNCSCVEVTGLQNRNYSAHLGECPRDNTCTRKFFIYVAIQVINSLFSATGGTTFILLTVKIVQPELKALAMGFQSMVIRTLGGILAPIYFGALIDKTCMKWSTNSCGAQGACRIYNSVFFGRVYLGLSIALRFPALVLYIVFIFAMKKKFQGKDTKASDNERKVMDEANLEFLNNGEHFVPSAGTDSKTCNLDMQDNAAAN
Description: as §2, §3

T4 sequence (P33261 whole entry): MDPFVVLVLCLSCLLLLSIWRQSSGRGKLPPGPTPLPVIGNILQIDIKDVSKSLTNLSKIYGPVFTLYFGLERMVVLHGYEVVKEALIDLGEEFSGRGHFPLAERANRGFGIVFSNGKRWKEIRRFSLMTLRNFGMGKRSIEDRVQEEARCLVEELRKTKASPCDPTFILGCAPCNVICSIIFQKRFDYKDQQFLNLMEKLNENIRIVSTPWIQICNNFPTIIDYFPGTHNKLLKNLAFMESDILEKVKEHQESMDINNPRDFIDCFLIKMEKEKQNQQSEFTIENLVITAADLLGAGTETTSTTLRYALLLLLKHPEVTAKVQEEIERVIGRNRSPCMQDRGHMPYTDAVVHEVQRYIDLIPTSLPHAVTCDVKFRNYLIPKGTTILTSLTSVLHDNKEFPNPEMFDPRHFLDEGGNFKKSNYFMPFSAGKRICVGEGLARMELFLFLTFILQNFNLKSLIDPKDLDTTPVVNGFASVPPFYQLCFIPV
T1 sequence (P08684 whole entry): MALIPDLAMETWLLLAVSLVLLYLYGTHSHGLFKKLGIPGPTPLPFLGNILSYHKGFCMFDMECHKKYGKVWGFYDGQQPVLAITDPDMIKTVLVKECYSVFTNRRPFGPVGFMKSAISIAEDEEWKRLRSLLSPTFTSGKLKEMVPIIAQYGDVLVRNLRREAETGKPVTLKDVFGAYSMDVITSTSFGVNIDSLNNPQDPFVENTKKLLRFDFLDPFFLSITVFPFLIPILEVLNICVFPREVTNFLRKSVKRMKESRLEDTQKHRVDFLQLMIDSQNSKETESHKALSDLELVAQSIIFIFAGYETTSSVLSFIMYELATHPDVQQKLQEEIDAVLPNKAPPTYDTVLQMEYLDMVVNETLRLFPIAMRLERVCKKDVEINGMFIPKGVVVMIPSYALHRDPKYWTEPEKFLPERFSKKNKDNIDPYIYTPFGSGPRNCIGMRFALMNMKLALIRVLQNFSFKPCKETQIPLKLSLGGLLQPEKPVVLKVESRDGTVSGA
T2 sequence (P10635 whole entry): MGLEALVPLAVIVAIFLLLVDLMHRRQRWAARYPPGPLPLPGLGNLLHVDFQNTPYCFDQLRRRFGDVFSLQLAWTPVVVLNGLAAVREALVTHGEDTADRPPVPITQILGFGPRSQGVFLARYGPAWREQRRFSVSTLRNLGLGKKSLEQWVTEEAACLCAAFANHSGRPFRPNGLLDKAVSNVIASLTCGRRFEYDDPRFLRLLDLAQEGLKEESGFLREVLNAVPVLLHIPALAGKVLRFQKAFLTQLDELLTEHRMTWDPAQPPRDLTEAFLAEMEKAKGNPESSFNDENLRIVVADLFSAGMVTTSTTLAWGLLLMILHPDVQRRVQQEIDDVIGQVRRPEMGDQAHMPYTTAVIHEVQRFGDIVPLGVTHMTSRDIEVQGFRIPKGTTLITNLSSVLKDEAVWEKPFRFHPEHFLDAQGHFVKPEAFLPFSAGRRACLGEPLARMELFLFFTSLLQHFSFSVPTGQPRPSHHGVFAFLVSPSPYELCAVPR
T5 sequence (P11712 whole entry): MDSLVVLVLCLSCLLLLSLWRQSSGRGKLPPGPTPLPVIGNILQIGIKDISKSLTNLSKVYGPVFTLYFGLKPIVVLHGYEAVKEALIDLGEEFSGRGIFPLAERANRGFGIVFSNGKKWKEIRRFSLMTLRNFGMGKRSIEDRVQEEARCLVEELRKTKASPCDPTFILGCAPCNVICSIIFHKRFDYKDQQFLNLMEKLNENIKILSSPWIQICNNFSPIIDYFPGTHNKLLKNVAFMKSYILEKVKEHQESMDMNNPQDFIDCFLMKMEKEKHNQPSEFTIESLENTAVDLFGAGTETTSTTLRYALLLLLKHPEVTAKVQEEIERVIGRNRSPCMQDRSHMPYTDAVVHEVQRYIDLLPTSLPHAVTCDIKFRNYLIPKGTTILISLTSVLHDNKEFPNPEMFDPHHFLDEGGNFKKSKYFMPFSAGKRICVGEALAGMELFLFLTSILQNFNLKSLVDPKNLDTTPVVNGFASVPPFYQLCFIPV
T6 sequence (P43220 24-463): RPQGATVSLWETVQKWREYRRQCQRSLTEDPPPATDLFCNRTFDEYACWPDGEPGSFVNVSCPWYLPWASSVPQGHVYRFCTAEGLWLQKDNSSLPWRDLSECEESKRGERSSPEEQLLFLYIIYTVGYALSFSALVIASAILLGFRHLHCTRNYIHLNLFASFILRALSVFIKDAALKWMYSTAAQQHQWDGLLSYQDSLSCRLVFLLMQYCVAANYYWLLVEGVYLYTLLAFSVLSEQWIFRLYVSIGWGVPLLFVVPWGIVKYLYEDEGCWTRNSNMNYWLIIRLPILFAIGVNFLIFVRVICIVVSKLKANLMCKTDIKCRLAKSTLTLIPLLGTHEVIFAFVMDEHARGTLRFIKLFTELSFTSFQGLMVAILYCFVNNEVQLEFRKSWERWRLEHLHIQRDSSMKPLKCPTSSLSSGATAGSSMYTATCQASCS

Row | Compound | IC50 (CYP3A4; human, microsomes) [µM] | IC50 (CYP2D6; human, microsomes) [µM] | IC50 (CYP1A2; human, microsomes) [µM] | IC50 (CYP2C19; human, microsomes) [µM] | IC50 (CYP2C9; human, microsomes) [µM] | EC50 (GLP-1R [1]) [nM] | bioavailability ([2]; mouse, po) [%] | AUC(0-t) ([2]; mouse, po) [ng·h/mL] | blood glucose inhibition rate (GLP-1R [4]) [%] | other results
1 | Cc1cc(-n2nc3c(c2-n2ccn(-c4ccc5c(c4)N(C)C(=O)C54CCOCC4)c2=O)[C@H](C)N(C(=O)c2cc4cc(C5CCOC(C)(C)C5)sc4n2C2(c4noc(=O)[nH]4)C[C@@H]2C)CC3)cc(C)c1F (single isomer, unassigned) [Compound 9] | > 30 | > 30 | > 30 | > 30 | 3.31 | < 1 |  |  |  | 
2 | C=C(F)c1cc(-n2nc3c(c2-n2ccn(-c4ccc5c(c4F)N(C)C(=O)C54CCOCC4)c2=O)[C@H](C)N(C(=O)c2cc4cc([C@H]5CCOC(C)(C)C5)ccc4n2[C@@]2(c4noc(=O)[nH]4)C[C@@H]2C)CC3)ccc1F [Compound 54] |  |  |  |  |  | < 1 | 33.8 | 12100 |  | 
3 | Cc1cc(-n2nc3c(c2-n2ccn(-c4ccc5c(cnn5C)c4F)c2=O)[C@H](C)N(C(=O)c2cc4cc([C@H]5CCOC(C)(C)C5)ccc4n2[C@@]2(c4noc(=O)[nH]4)C[C@@H]2C)CC3)cc(C)c1F [Orforglipron, reference compound] |  |  |  |  |  |  |  |  | -9.8 | bioavailability ([2]; male, C57, mouse, oral): 7.93%; AUC(0-t) ([2]; male, C57, mouse, po): 3260 ng·h/mL; IC50 (CYP3A4; human liver microsomes, NADPH, read-out: IC50 (µM) CYP3A4): > 30 µM; IC50 (CYP2D6; human liver microsomes, NADPH, read-out: IC50 (µM) CYP2D6): > 30 µM; IC50 (CYP1A2; human liver microsomes, NADPH, read-out: IC50 (µM) CYP1A2): > 30 µM; IC50 (CYP2C19; human liver microsomes, NADPH, read-out: IC50 (µM) CYP2C19): > 30 µM; IC50 (CYP2C9; human liver microsomes, NADPH, read-out: IC50 (µM) CYP2C9): 0.905 µM; bioavailability ([3]; male, plasma, oral): 1.93%; AUC(0-t) ([3]; male, po, plasma): 584 ng·h/mL
4 | [2H]C([2H])([2H])N1C(=O)C2(CCOCC2)c2ccc(-n3ccn(-c4c5c(nn4-c4cc(C)c(F)c(C)c4)CCN(C(=O)c4cc6cc([C@H]7CCOC(C)(C)C7)ccc6n4[C@@]4(c6noc(=O)[nH]6)C[C@@H]4C)[C@H]5C)c3=O)cc21 [Compound 3] | > 30 | > 30 | > 30 | > 30 | > 30 | < 1 |  |  | -37.1 | 
5 | C[C@H]1c2c(nn(-c3ccc(F)c(C4(F)CC4)c3)c2-n2ccn(-c3ccc4c(c3)N(C)C(=O)C43CCOCC3)c2=O)CCN1C(=O)c1cc2cc([C@H]3CCOC(C)(C)C3)ccc2n1[C@@]1(c2noc(=O)[nH]2)C[C@@H]1C [Compound 6] | > 30 | > 30 | > 30 | > 30 | > 30 | < 1 |  |  |  | IC50 (OATP1B1): > 2000 nM; IC50 (OATP1B3): > 1000 nM
6 | [2H]C([2H])([2H])N1C(=O)C2(CCOCC2)c2ccc(-n3ccn(-c4c5c(nn4-c4ccc(F)c(C(=C)F)c4)CCN(C(=O)c4cc6cc([C@H]7CCOC(C)(C)C7)ccc6n4[C@@]4(c6noc(=O)[nH]6)C[C@@H]4C)[C@H]5C)c3=O)c(F)c21 [Compound 55] |  |  |  |  |  | < 1 | 25.1 | 8670 |  | 
7 | Cc1cc(-n2nc3c(c2-n2ccn(-c4ccc5c(c4)N(C)C(=O)C54CCOCC4)c2=O)[C@H](C)N(C(=O)c2cc4cc([C@H]5CCOC(C)(C)C5)ccc4n2[C@@]2(c4noc(=O)[nH]4)C[C@@H]2C)CC3)cc(C)c1F [Compound 2] |  |  |  |  |  | < 1 | 70.3 | 23200 | -25.5 | bioavailability ([3]; in vivo, po): 32.6%; AUC(0-t) ([3]; po, plasma): 11600 ng·h/mL
8 | Cc1cc(-n2nc3c(c2-n2ccn(-c4ccc5c(c4)N(C)C(=O)C54CCN(C(=O)C56CC(F)(C5)C6)CC4)c2=O)[C@H](C)N(C(=O)c2cc4cc([C@H]5CCOC(C)(C)C5)ccc4n2[C@@]2(c4noc(=O)[nH]4)C[C@@H]2C)CC3)cc(C)c1F [Compound 26] |  |  |  |  |  | < 1 |  |  |  | 
9 | Cc1cc(-n2nc3c(c2-n2ccn(-c4ccc5c(c4)N(C)C(=O)C54CCN(C(=O)C5COC5)CC4)c2=O)[C@H](C)N(C(=O)c2cc4cc([C@H]5CCOC(C)(C)C5)ccc4n2[C@@]2(c4noc(=O)[nH]4)C[C@@H]2C)CC3)cc(C)c1F [Compound 18] |  |  |  |  |  | < 1 |  |  |  | 
